Like-named read-outs stand apart in the source and are kept apart here.
Columns and labels:
[1] = test system: control IgG (IgG purified from one donor); assay: Direct binding ELISA, negative control immunoglobulin; parameters: species or system human
Method: (§1) The binding of anti-Id to the peptides was tested by ELISA.
(§2) ELISA plates were coated by 10 ug/ml of peptides in PBS overnight at 4° C. The plates were blocked with 3% BSA for 1hr at 37° C. Anti-Id was added at different concentrations. IgG purified from one donor was used as negative control.
(§3) The binding of the immunoglobulin was probed with goat anti-human IgG conjugated to alkaline phosphatase and the appropriate substrate. Between each step, extensive washings were performed with 0.05% PBS-Tween.
(§4) The same protocol was used as above, but the peptides used in this study were taken from the literature except for peptide number 1 which is the first peptide in the previous experiment.

[2] = test system: anti-anti-dsDNA (anti-Id) isolated from IVIG; assay: Direct binding of anti-Id to the synthetic peptides by ELISA; parameters: species or system human
Method: as §1, §2, §3, §4

[3] = test system: immunoglobulin elution peak from a peptide column bound with peptide 707; assay: ELISA of peptide column eluate with biotinylated peptides (707 column); assay type: binding, human; conditions: FIG. 4
Method: (§5) To measure the binding efficacy of peptide column eluates (706 and 707) the following ELISA was performed:
(§6) Microtiter plates (Costar, USA) were coated overnight at 2-8° C. with 10 μg/ml NeutrAvidin (Pierce, USA) suspended in 0.1M, pH 8.8, of carbonate-bicarbonate buffer (Sigma USA). The coating solution was removed, washed three times with washing buffer (1×PBS) and 200 μl of blocking solution (freshly prepared 1% I Block, Tropix, USA) per well was added and incubated for 1 hour at 37° C. Coated and blocked plates can be stored at −20° C. for a month before use.
(§7) Tested samples diluted in the blocking solution were mixed in a separate tube with 1 μg/ml (final concentration) of the appropriate biotinylated peptide and the mixture was incubated for 1 hour at 37° C. 100 μl from each reaction tube was then transferred to the blocked microtiter plate and incubated at 37° C. for ½ hour. A 100 μl of 1:5000 Alkaline Phosphatase conjugate goat anti human IgG (Heavy and light chain from Jackson, USA) diluted in the blocking buffer was applied into the microtiter well and incubated for 1 hour. […] The measurement was done photometrically at 405 nm.

mice = conditions: responder mice (BALB/c, SJL), cited from earlier work
[4] = test system: immunoglobulin eluted from a peptide column bearing the peptide 706; assay: ELISA of peptide column eluate with biotinylated peptides (706 column); assay type: binding, human; conditions: FIG. 3; biotinylated peptide 1 μg/ml
Method: as §5, §6, §7

[5] = Table 2, anti-Id 10 μg/ml, plates coated with 10 ug/ml peptide

| Substance | binding of control IgG to peptide (OD at 405 nm) ([1]; Table 2, control IgG 1 μg/ml) | binding of control IgG to peptide (OD at 405 nm) ([1]; Table 2, control IgG 5 μg/ml) | binding of anti-Id to peptide (OD at 405 nm) ([2]; Table 2, anti-Id 1 μg/ml) | binding of anti-Id to peptide (OD at 405 nm) ([2]; Table 2, anti-Id 2.5 μg/ml) | binding of anti-Id to peptide (OD at 405 nm) ([2]; Table 2, anti-Id 5 μg/ml) | binding of anti-Id to peptide (OD at 405 nm) [2, 5] | other results |
| --- | --- | --- | --- | --- | --- | --- | --- |
| YYCARFLWEPYAMDYWGQGS [Pep 707, 16.6 monoclonal antibody CDR3-based peptide] |  |  |  |  |  |  | specificity of the elution peak from the column bound with the peptide [3]: reacted in a non-specific manner; induction of SLE-like disease in mice (mice): can cause SLE symptoms; induction of SLE-like disease in mice (mice; listed as pCDR3): induced a mild SLE-like disease |
| GIWELSKEPSQKVWQMYYGT [Pep R706, reverse order of CDR1, used as a control] |  |  |  |  |  |  | binding of 707 column eluate to biotinylated peptide ([3]; biotinylated peptide 1 μg/ml): reacted even more strongly; binding of 706 column eluate to biotinylated peptide [4]: not |
| PLPDWRV [Pep 12] | 0.043 | 0.045 | 0.042 | 0.072 | 0.273 | 1.356 |  |
| KHETTET [Pep 1] | 0.013 | 0.016 | 0.046 | 0.269 | 1.329 | 1.815 | binding of control IgG to peptide (OD at 405 nm) ([1]; Table 3, Control IgG 1 μg/ml): 0.044; binding of control IgG to peptide (OD at 405 nm) ([1]; Table 3, Control IgG 5 μg/ml): 0.043; binding of anti-Id to peptide (OD at 405 nm) ([2]; Table 3 (literature peptides), anti-Id 10 μg/ml): 1.21; binding of anti-Id to peptide (OD at 405 nm) ([2]; Table 3, anti-Id 1 μg/ml): 0.041; binding of anti-Id to peptide (OD at 405 nm) ([2]; Table 3, anti-Id 2.5 μg/ml): 0.074; binding of anti-Id to peptide (OD at 405 nm) ([2]; Table 3, anti-Id 5 μg/ml): 0.216 |

Second part, led by results:

| binding of control IgG to peptide (OD at 405 nm) ([1]; Table 2, control IgG 1 μg/ml) | binding of control IgG to peptide (OD at 405 nm) ([1]; Table 2, control IgG 5 μg/ml) | binding of anti-Id to peptide (OD at 405 nm) ([2]; Table 2, anti-Id 1 μg/ml) | binding of anti-Id to peptide (OD at 405 nm) ([2]; Table 2, anti-Id 2.5 μg/ml) | binding of anti-Id to peptide (OD at 405 nm) ([2]; Table 2, anti-Id 5 μg/ml) | binding of anti-Id to peptide (OD at 405 nm) [2, 5] | Substance | other results |
| --- | --- | --- | --- | --- | --- | --- | --- |
| 0.069 | 0.078 | 0.112 | 0.099 | 0.387 | 0.748 | DWLYSRS [Pep 13] |  |
| 0.079 | 0.083 | 0.113 | 0.234 | 0.611 | 0.987 | PPQKHLL [Pep 14] |  |
| 0.037 | 0.068 | 0.049 | 0.067 | 0.117 | 0.287 | KYKRKYP [Pep 15] |  |

— US8450067B2, “Method for obtaining anti-idiotype antibodies” (Omrix Biopharmaceuticals Inc., priority 2002, dated 2013)
